{
  "source": "paper PMC6838323",
  "about": "(2019)",
  "test_in_all_cases": "fluorescence (Cy3/DABCYL) titration, two-site fit",
  "conditions_in_all_cases": "6 mM Mg2+; 10 mM Tris-HCl pH 7.5, 25 °C; 250 nM aptamer; apparent; ATP up to 6.75 mM",
  "key": {"[1]": {"system": "8_43 (DNA, aptamer) CACCTGGGGGAGTATTGCGGAGGAAGGTTTTTTTTTTTTTTTTTTTTTTTTCCCAGGTG"}, "[2]": {"system": "7_25 (DNA, aptamer) CACCTGGGGGAGTATTGCGGAGGAAGGTTTTTCCAGGTG"}, "[3]": {"system": "9_43 (DNA, aptamer) CACCTGGGGGAGTATTGCGGAGGAAGGTTTTTTTTTTTTTTTTTTTTTTTTTCCCCAGGTG"}, "[4]": {"system": "6_25 (DNA, aptamer) CACCTGGGGGAGTATTGCGGAGGAAGGTTTTCAGGTG"}, "[5]": {"system": "8_23 (DNA, aptamer) CACCTGGGGGAGTATTGCGGAGGAAGGTTTTCCCAGGTG"}, "[6]": {"system": "8_25 (DNA, aptamer) CACCTGGGGGAGTATTGCGGAGGAAGGTTTTTTCCCAGGTG"}, "[7]": {"system": "6_23 (DNA, aptamer) CACCTGGGGGAGTATTGCGGAGGAAGGTTCAGGTG"}, "[8]": {"system": "8_33 (DNA, aptamer) CACCTGGGGGAGTATTGCGGAGGAAGGTTTTTTTTTTTTTTCCCAGGTG"}, "[9]": {"system": "7_33 (DNA, aptamer) CACCTGGGGGAGTATTGCGGAGGAAGGTTTTTTTTTTTTTCCAGGTG"}, "[10]": {"system": "7_36 (DNA, aptamer) CACCTGGGGGAGTATTGCGGAGGAAGGTTTTTTTTTTTTTTTTCCAGGTG"}, "[11]": {"system": "7_43 (DNA, aptamer) CACCTGGGGGAGTATTGCGGAGGAAGGTTTTTTTTTTTTTTTTTTTTTTTCCAGGTG"}, "[12]": {"system": "9_23 (DNA, aptamer) CACCTGGGGGAGTATTGCGGAGGAAGGTTTTTCCCCAGGTG"}, "[13]": {"system": "6_36 (DNA, aptamer) CACCTGGGGGAGTATTGCGGAGGAAGGTTTTTTTTTTTTTTTCAGGTG"}, "[14]": {"system": "8_36 (DNA, aptamer) CACCTGGGGGAGTATTGCGGAGGAAGGTTTTTTTTTTTTTTTTTCCCAGGTG"}, "[15]": {"system": "9_33 (DNA, aptamer) CACCTGGGGGAGTATTGCGGAGGAAGGTTTTTTTTTTTTTTTCCCCAGGTG"}, "[16]": {"system": "9_25 (DNA, aptamer) CACCTGGGGGAGTATTGCGGAGGAAGGTTTTTTTCCCCAGGTG"}, "[17]": {"system": "9_36 (DNA, aptamer) CACCTGGGGGAGTATTGCGGAGGAAGGTTTTTTTTTTTTTTTTTTCCCCAGGTG"}, "[18]": {"system": "6_33 (DNA, aptamer) CACCTGGGGGAGTATTGCGGAGGAAGGTTTTTTTTTTTTCAGGTG"}, "[19]": {"system": "7_23 (DNA, aptamer) CACCTGGGGGAGTATTGCGGAGGAAGGTTTCCAGGTG"}},
  "data": [
    {"smiles": "Nc1ncnc2c1ncn2[C@@H]1O[C@H](COP(=O)(O)OP(=O)(O)OP(=O)(O)O)[C@@H](O)[C@H]1O", "values": [
      {"measurement": "KDeff", "setting": "[1]", "value": "0.388 ± 0.124", "unit": "mM"},
      {"measurement": "KDeff", "setting": "[2]", "value": "0.271 ± 0.038", "unit": "mM"},
      {"measurement": "KDeff", "setting": "[3]", "value": "0.967 ± 0.085", "unit": "mM"},
      {"measurement": "KDeff", "setting": "[4]", "value": "0.0262 ± 0.0095", "unit": "mM"},
      {"measurement": "KDeff", "setting": "[5]", "value": "3.58 ± 1.37", "unit": "mM"},
      {"measurement": "KDeff", "setting": "[6]", "value": "2.29 ± 0.05", "unit": "mM"},
      {"measurement": "KDeff", "setting": "[7]", "value": "0.0314 ± 0.0111", "unit": "mM"},
      {"measurement": "KDeff", "setting": "[8]", "value": "0.734 ± 0.01", "unit": "mM"},
      {"measurement": "KDeff", "setting": "[9]", "value": "0.0985 ± 0.0481", "unit": "mM"},
      {"measurement": "KDeff", "setting": "[10]", "value": "0.0709 ± 0.0018", "unit": "mM"},
      {"measurement": "KDeff", "setting": "[11]", "value": "0.0298 ± 0.0031", "unit": "mM"},
      {"measurement": "KDeff", "setting": "[12]", "value": "39.0 ± 35.7", "unit": "mM"},
      {"measurement": "KDeff", "setting": "[13]", "value": "0.0107 ± 0.0019", "unit": "mM"},
      {"measurement": "KDeff", "setting": "[14]", "value": "0.352 ± 0.043", "unit": "mM"},
      {"measurement": "KDeff", "setting": "[15]", "value": "4.98 ± 0.53", "unit": "mM"},
      {"measurement": "KDeff", "setting": "[16]", "value": "12.8 ± 1.7", "unit": "mM"},
      {"measurement": "KDeff", "setting": "[17]", "value": "2.72 ± 1.47", "unit": "mM"},
      {"measurement": "KDeff", "setting": "[18]", "value": "0.0182 ± 0.0076", "unit": "mM"},
      {"measurement": "KDeff", "setting": "[19]", "value": "0.382 ± 0.034", "unit": "mM"}
    ]}
  ]
}
